Among the data in patent US20240182465A1 (GENFLEET THERAPEUTICS (SHANGHAI) INC., priority 2021, published 2024) are IC50 values, retold here.

Structures can show the parent of a compound that is named as a salt.

In assay [1] the target is HPK1 (Homo sapiens, UniProt Q92918). The assay can be described thus: SLP76 phosphorylation assay (intracellular HPK1 inhibitory activity, p-SLP76 Ser376 sandwich ELISA). As to conditions: p-SLP76 IC50(nM), Jurkat, Clone E6-1 cells; 1 h compound pre-incubation, anti-CD3 beads stimulation 20 min; SLP76 phosphorylation at S376. (In an ELISA, binding on a coated surface is turned into a signal by an enzyme label.)
Target sequence in this assay (Q92918 whole entry): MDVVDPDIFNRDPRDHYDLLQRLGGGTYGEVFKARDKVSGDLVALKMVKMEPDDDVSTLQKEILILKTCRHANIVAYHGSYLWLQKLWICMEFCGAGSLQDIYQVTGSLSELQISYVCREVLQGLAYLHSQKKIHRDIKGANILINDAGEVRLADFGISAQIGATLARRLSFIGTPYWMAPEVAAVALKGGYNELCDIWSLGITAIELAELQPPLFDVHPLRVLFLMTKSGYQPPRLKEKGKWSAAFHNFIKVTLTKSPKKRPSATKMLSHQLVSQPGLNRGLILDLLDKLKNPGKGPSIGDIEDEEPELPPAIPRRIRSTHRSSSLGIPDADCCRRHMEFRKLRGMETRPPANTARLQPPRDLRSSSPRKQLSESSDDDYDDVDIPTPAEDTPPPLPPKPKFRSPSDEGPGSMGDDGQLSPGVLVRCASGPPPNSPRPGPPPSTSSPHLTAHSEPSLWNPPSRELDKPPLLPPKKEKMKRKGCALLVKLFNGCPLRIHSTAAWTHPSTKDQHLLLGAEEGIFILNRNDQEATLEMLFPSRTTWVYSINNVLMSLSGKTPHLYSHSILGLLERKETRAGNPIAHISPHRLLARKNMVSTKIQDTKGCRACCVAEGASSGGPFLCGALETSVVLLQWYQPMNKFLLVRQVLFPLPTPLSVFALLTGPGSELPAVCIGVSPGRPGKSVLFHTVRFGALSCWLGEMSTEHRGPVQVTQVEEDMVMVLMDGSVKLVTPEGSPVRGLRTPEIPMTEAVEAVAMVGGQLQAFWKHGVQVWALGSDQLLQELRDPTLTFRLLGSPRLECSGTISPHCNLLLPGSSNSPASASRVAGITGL
Method: Intracellular HPK1 inhibitory activity was tested by the detection of SLP76 phosphorylation at S376.
(§1) Preparation of 1000× drug stock plate: a 1000× compound stock plate was prepared. […] The compound stock plate was sealed with a sealing film and stored in a −20° C. refrigerator for later use.
Preparation of Beads wash buffer: 0.1 mL FBS and 0.4 mL 0.5 M EDTA (with a final concentration of 2 mM) were added to 100 mL PBS and stored in a 4° C. refrigerator for later use.
100× Protease Inhibitor Cocktail in 1/20 total volume was added and stored on wet ice for later use. The buffer was ready to use.
Cell inoculation and dosing: the 1000× drug stock plate was taken and melted at room temperature in the dark. […] Jurkat cells in the logarithmic growth phase were selected and collected. […] The cells were inoculated into a 96-well plate (the volume was 90 μL per well), and a blank control well (without cells inoculation, and in which 110 μL of medium was added) was set. 10 μL of a drug-containing culture medium (10×) was transferred from the 10× drug intermediate plate into the 96-well cell plate (with a final concentration of 0.1% DMSO), and set a DMSO control group (in which 0.1% DMSO was added to the treated cells), a stimulated control group (in which 10 μL of culture medium was added to treat cells) and an unstimulated group (in which 10 μL of culture medium was added to treat cells). The wells were duplicated, gently patted, mixed, and then placed into a 5% CO2 incubator at 37° C. for 1 h.
Anti-CD3 beads stimulation: Dynabeads anti-human CD3 was taken, shaken, and mixed for 60 s. The required volume of beads was pipetted, and an equal volume or at least 1 mL of washing solution was added to wash once. Fresh complete medium was then added to resuspend and adjust the density of the beads to 4×10^7/mL, and the beads were placed on ice for later use. At the end of drug pre-incubation, the cell culture plate was taken out. 10 μL Dynabeads anti-human CD3 was added to each well to treat the cells, and 10 μL the culture medium was added to the unstimulated group. The cell culture plate was shaken to mix well at 2500 rpm for 10 s, and then placed into a 5% CO2 incubator at 37° C. and continued to culture for 20 min.
Detection of p-SLP76 protein level. PathScan Phospho-SLP-76 (Ser376) Sandwich ELISA Kit was applied to detect p-SLP76 protein level. At the end of the Anti-CD3 beads stimulation, the cell culture plate was removed from the incubator. […] After lysis, the cell culture plate was centrifuged at 4° C., 400×g for 5 min. 25 μL of sample and 75 μL of sample diluent were added to each well, and the plate was placed in a 5% CO2 incubator at 37° C. for 2 h. The subsequent detection steps were carried out following the kit instructions, and the absorbance (OD value) of each well was read at 450 nm by a microplate reader.

In assay [2] the target is T1, HPK1 (Homo sapiens, UniProt Q92918).
T1 sequence (Q92918 1-346 limits assumed): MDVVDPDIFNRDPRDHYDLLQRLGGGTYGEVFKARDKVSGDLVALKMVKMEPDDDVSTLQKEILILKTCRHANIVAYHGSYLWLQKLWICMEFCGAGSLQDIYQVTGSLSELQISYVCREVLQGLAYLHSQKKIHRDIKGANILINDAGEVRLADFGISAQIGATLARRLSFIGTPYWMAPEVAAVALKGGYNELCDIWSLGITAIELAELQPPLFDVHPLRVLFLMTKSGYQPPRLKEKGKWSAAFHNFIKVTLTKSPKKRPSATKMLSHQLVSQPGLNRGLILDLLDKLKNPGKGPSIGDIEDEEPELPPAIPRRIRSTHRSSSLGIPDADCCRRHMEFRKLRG
Briefly: HPK1 kinase activity assay (ADP-Glo). The conditions noted are these: HPK1 Kinase activity IC50 (nM), 1 nM HPK1, 10 μM ATP, 0.1 μg/μL MBP.
Method: Preparation of buffer: 1× reaction buffer (40 mM Tris-HCl, 20 mM MgCl2, 0.01% Brij35, 50 μM DTT, 0.1 mg/ml BSA) was prepared using sterile water, which was prepared and used on the day of the experiment.
as §1
Compound preparation and dosing: the 1000× drug stock plate was taken and melted at room temperature in the dark. Then 5× drug intermediate plate was prepared using reaction buffer and mixed well. 2 μL was transferred from the 5× drug intermediate plate into a 384-well plate, and negative control well and positive control well (in which 2 μL reaction buffer containing 0.5% DMSO was added) were set. Each point was repeated twice.
Preparation and incubation of reaction mixture: HPK1 protein was diluted to a 2.5× working solution with reaction buffer. 4 μL 2.5×HPK1 protein was added to each well containing test compound and positive control well, and 4 μL of reaction buffer without HPK1 protein was added to the negative control well. The obtained mixture was centrifuged at 1000 rpm for 1 min and then incubated in a 20° C. incubator for 15 min. A 2.5× mixed working solution of MBP protein and ATP was prepared with reaction buffer at concentrations of 0.5 μg/μL and 50 PM, respectively. 4 μL of the mixed working solution of MBP and ATP was added to each well, centrifuged at 1000 rpm for 1 min, and then incubated in a 20° C. incubator for 90 min.
ADP-Glo detection and reading plate: 10 μl ADP-Glo was added to each well of the test plate. The resulting mixture was centrifuged at 1000 rpm for 1 min and incubated in a 20° C. incubator for 60 min. Then 10 μL of the final incubation solution was transferred from the test plate to a new 384-well plate. 10 μL of kinase detection reagent was added to each well, centrifuged at 400 g for 1 min, and incubated in a 20° C. incubator for 60 min. Chemiluminescent signals were read by a microplate reader.

In the case of `Cc1cc(C(=O)N2CCc3cc(-c4cnc5[nH]cc(C)c5c4)cc([C@@H]4CCCN4)c3C2)ncn1` [Compound Z331, (S)-(6-(3-methyl-1H-pyrrolo[2,3-b]pyridin-5-yl)-8-(pyrrolidin-2-yl)-3,4-dihydroisoquinolin-2(1H)-yl) (6-methylpyrimidin-4-yl)methanone], the figures for the IC50 on HPK1 [1] and on HPK1 [2] were 174 nM and 0.7 nM, respectively.
On to `CCn1cc(C(=O)N2CCc3cc(-c4cnc5[nH]cc(C)c5c4)cc([C@@H]4CCCN4)c3C2)cn1` [Compound Z335, (S)-(1-ethyl-1H-pyrazol-4-yl)-[6-(3-methyl-1H-pyrrolo[2,3-b]pyridin-5-yl)-8-[pyrrolidin-2-yl]-3,4-dihydroisoquinolin-2(1H)-yl]methanone], for which the results for the half-inhibitory concentration (IC50) against HPK1 [1] and on HPK1 [2] were 170 nM and 0.25 nM, respectively.
Take `Cc1c[nH]c2ncc(-c3cc4c(c([C@@H]5CCCN5)c3)CN(C(=O)c3cnn(C(F)F)c3)CC4)cc12` [Compound Z336, (S)-(1-(difluoromethyl)-1H-pyrazol-4-yl)-[6-(3-methyl-1H-pyrrolo[2,3-b]pyridin-5-yl)-8-[pyrrolidin-2-yl]-3,4-dihydroisoquinolin-2(1H)-yl]methanone]: the figures for the IC50 against HPK1 [1] and against HPK1 [2] were 174 nM and 0.36 nM, respectively.
For the compound `Cc1c[nH]c2ncc(-c3cc4c(c([C@@H]5CCCN5)c3)CN(C(=O)c3cn(C)nc3C(F)(F)F)CC4)cc12` [Compound Z337, [6-(3-methyl-1H-pyrrolo[2,3-b]pyridin-5-yl)-8-[(2S)-pyrrolidin-2-yl]-3,4-dihydro-1H-isoquinolin-2-yl]-[l-methyl-3-(trifluoromethyl)pyrazol-4-yl]methanone], the IC50 (usually the point on the concentration scale where inhibition reaches its midpoint) against HPK1 [1] stood at 359 nM; at HPK1 [2], 1.57 nM.
On to `Cc1nn(C2CC2)cc1C(=O)N1CCc2cc(-c3cnc4[nH]cc(C)c4c3)cc([C@@H]3CCCN3)c2C1` [Compound Z341], for which the values for the IC50 against HPK1 [1] and against HPK1 [2] were 492 nM and 1.09 nM, respectively.
In the case of `Cc1cc(N2CCc3cc(-c4cnc5[nH]cc(C)c5c4)cc([C@@H]4CCCN4)c3C2)cc(C)n1` [Compound Z343, (S)-2-(2,6-dimethylpyridin-4-yl)-6-(3-methyl-1H-pyrrolo[2,3-b]pyridin-5-yl)-8-(pyrrolidin-2-yl)-1,2,3,4-tetrahydroisoquinoline], the IC50 was found to be 177 nM on HPK1 [1] and 0.4 nM against HPK1 [2].
In the case of `COc1cc(N2CCc3cc(-c4cnc5[nH]cc(C)c5c4)cc([C@@H]4CCCN4)c3C2)ccn1` [Compound Z344, (S)-2-(2-methoxypyridin-4-yl)-6-(3-methyl-1H-pyrrolo[2,3-b]pyridin-5-yl)-8-(pyrrolidin-2-yl)-1,2,3,4-tetrahydroisoquinoline], the IC50 was 386 nM at HPK1 [1] and 1.52 nM against HPK1 [2].
For `Cc1c[nH]c2ncc(-c3cc4c(c([C@@H]5CCCN5)c3)CN(C(=O)c3cnn(C5CC5)c3C)CC4)cc12` [Compound Z346, (S)-(1-cyclopropyl-5-methyl-1H-pyrazol-4-yl)-[6-(3-methyl-1H-pyrrolo[2,3-b]pyridin-5-yl)-8-[pyrrolidin-2-yl]-3,4-dihydroisoquinolin-2(1H)-yl]methanone] the same measures were 226 nM and 0.43 nM.
With `Cc1c[nH]c2ncc(-c3cc4c(c([C@@H]5CCCN5)c3)CN(C(=O)c3cn(C(C)C)nc3C(F)(F)F)CC4)cc12` [Compound Z348, (S)-[1-isopropyl-3-(trifluoromethyl)-1H-pyrazol-4-yl]-[6-(3-methyl-1H-pyrrolo[2,3-b]pyridin-5-yl)-8-[pyrrolidin-2-yl]-3,4-dihydroisoquinolin-2(1H)-yl]methanone], the IC50 on HPK1 [1] was found to be 183 nM; against HPK1 [2], 0.75 nM.
With `Cc1ncc(C(=O)N2CCc3cc(-c4cnc5[nH]cc(C)c5c4)cc([C@@H]4CCCN4)c3C2)c(C(F)(F)F)n1` [Compound Z349, (S)-(6-(3-methyl-1H-pyrrolo[2,3-b]pyridin-5-yl)-8-(pyrrolidin-2-yl)-3,4-dihydroisoquinolin-2(1H)-yl) (2-methyl-4-(trifluoromethyl)pyrimidin-5-yl)methanone], the IC50 against HPK1 [1] was found to be 240 nM; on HPK1 [2], 0.47 nM.
Take `Cc1c[nH]c2ncc(-c3cc4c(c([C@@H]5CCCN5)c3)CN(C(=O)c3cnc(C5CC5)nc3)CC4)cc12` [Compound Z351, (S)-(2-cyclopropylpyrimidin-5-yl)(6-(3-methyl-1H-pyrrolo[2,3-b]pyridin-5-yl)-8-(pyrrolidin-2-yl)-3,4-dihydroisoquinolin-2(1H)-yl)methanone]: the IC50 at HPK1 [1] amounted to 126 nM; on HPK1 [2], 0.87 nM.
As to `Cc1c[nH]c2ncc(-c3cc4c(c([C@@H]5CCCN5)c3)CN(C(=O)c3cc(C)n(C)n3)CC4)cc12` [Compound Z354], the figures for the IC50 against HPK1 [1] and on HPK1 [2] were 269 nM and 1.02 nM, respectively.
On to `Cc1cc(C(=O)N2CCc3cc(-c4cnc5[nH]cc(C)c5c4)cc([C@@H]4CCCN4)c3C2)n(C)n1` [Compound Z355, (S)-(1,3-dimethyl-1H-pyrazol-5-yl)(6-(3-methyl-1H-pyrrolo[2,3-b]pyridin-5-yl)-8-(pyrrolidin-2-yl)-3,4-dihydroisoquinolin-2(1H)-yl)methanone], for which the IC50 against HPK1 [1] was 196 nM; against HPK1 [2], 0.45 nM.
Turning to `Cc1c[nH]c2ncc(-c3cc4c(c([C@@H]5CCCN5)c3)CN(C(=O)N3CCOCC3)CC4)cc12` [Compound Z356, (S)-(6-(3-methyl-1H-pyrrolo[2,3-b]pyridin-5-yl)-8-(pyrrolidin-2-yl)-3,4-dihydroisoquinolin-2(1H)-yl) (morpholino)methanone], the values for the IC50 against HPK1 [1] and on HPK1 [2] were 62.1 nM and 0.28 nM, respectively.
For `CO[C@H]1CCN(C(=O)N2CCc3cc(-c4cnc5[nH]cc(C)c5c4)cc([C@@H]4CCCN4)c3C2)C1` [Compound Z357-1], the IC50 was determined as 99.3 nM on HPK1 [1] and 0.31 nM on HPK1 [2].
For `CO[C@@H]1CCN(C(=O)N2CCc3cc(-c4cnc5[nH]cc(C)c5c4)cc([C@@H]4CCCN4)c3C2)C1` [Compound Z357-2, ((R)-3-methoxypyrrolidin-1-yl)(6-(3-methyl-1H-pyrrolo[2,3-b]pyridin-5-yl)-8-((S)-pyrrolidin-2-yl)-3,4-dihydroisoquinolin-2(1H)-yl)methanone] the same measures were 80.7 nM and 0.26 nM.
For `Cc1c[nH]c2ncc(-c3cc4c(c([C@@H]5CCCN5)c3)CN(C(=O)N3CCOC[C@@H]3C)CC4)cc12` [Compound Z358-1] the same measures were 67.4 nM and 0.23 nM.
For `Cc1c[nH]c2ncc(-c3cc4c(c([C@@H]5CCCN5)c3)CN(C(=O)N3CCOC[C@H]3C)CC4)cc12` [Compound Z358-2, (6-(3-methyl-1H-pyrrolo[2,3-b]pyridin-5-yl)-8-((S)-pyrrolidin-2-yl)-3,4-dihydroisoquinolin-2(1H)-yl) ((R)-3-methylmorpholin)methanone] the same measures were 53.2 nM and 0.23 nM.
For `Cc1c[nH]c2ncc(-c3cc4c(c([C@@H]5CCCN5)c3)CN(C(=O)N3CCO[C@@H](C)C3)CC4)cc12` [Compound Z359-1, (6-(3-methyl-1H-pyrrolo[2,3-b]pyridin-5-yl)-8-((S)-pyrrolidin-2-yl)-3,4-dihydroisoquinolin-2(1H)-yl) ((S)-2-methylmorpholin)methanone], the IC50 worked out at 135 nM at HPK1 [1] and 0.27 nM against HPK1 [2].
In the case of `Cc1c[nH]c2ncc(-c3cc4c(c([C@@H]5CCCN5)c3)CN(C(=O)N3CCO[C@H](C)C3)CC4)cc12` [Compound Z359-2, (6-(3-methyl-1H-pyrrolo[2,3-b]pyridin-5-yl)-8-((S)-pyrrolidin-2-yl)-3,4-dihydroisoquinolin-2(1H)-yl) ((R)-2-methylmorpholin)methanone], the figures for the IC50 against HPK1 [1] and on HPK1 [2] were 98.1 nM and 0.36 nM, respectively.
As to `Cc1c[nH]c2ncc(-c3cc4c(c([C@@H]5CCCN5)c3)CN(C(=O)N3CCOCC3(C)C)CC4)cc12` [Compound Z361], the IC50 is 102 nM against HPK1 [1] and 0.36 nM against HPK1 [2].
With `Cc1c[nH]c2ncc(-c3cc4c(c([C@@H]5CCCN5)c3)CN(C(=O)N3CCOC(C)(C)C3)CC4)cc12` [Compound Z362, (S)-(2,2-dimethylmorpholine)(6-(3-methyl-1H-pyrrolo[2,3-b]pyridin-5-yl)-8-(pyrrolidin-2-yl)-3,4-dihydroisoquinolin-2(1H)-yl)methanone], the IC50 on HPK1 [1] worked out at 92.9 nM; on HPK1 [2] it was 0.22 nM.
As to `O=C1OCc2ccc(-c3c[nH]c4ncc(-c5cc6c(c([C@@H]7CCCN7)c5)COCC6)cc34)cc21` [Compound Z365, (S)-6-(5-(8-(pyrrolidin-2-yl)isochroman-6-yl)-1H-pyrrolo[2,3-b]pyridin-3-yl)isobenzofuran-1(3H)-one], the IC50 against HPK1 [1] came out at 315 nM; against HPK1 [2], 0.97 nM.
As to `Cc1c[nH]c2ncc(-c3cc4c(c([C@@H]5CCCN5)c3)CN(C(=O)c3cnn(C)c3)C4)cc12` [Compound Z368, (S)-(1-methyl-1H-pyrazol-4-yl)(6-(3-methyl-1H-pyrrolo[2,3-b]pyridin-5-yl)-4-(pyrrolidin-2-yl)isoindolin-2-yl)methanone hydrochloride], the results for the IC50 against HPK1 [1] and at HPK1 [2] were 417 nM and 1.41 nM, respectively.
For `Cc1c[nH]c2ncc(-c3cc4c(c([C@@H]5CCCN5)c3)CN(C(=O)Nc3nccs3)C4)cc12` [Compound Z386, (S)-6-(3-methyl-1H-pyrrolo[2,3-b]pyridin-5-yl)-4-(pyrrolidin-2-yl)-N-(thiazol-2-yl)isoindoline-2-carboxamide] the same measures were 632 nM and 2.74 nM.
